“And” between values parts separate entries of the source, which are not always exact repeats. Identical values can stand only once. Like-named read-outs stand apart in the source and are kept apart here.
How the values were obtained:
[1] = test system: chloroform-induced ventricular fibrillation; experiment: Chloroform-induced ventricular fibrillation in the mouse; format: in vivo
Text: In this technique first described by LAWSON, J. W. in J. Pharm. Exp. Ther. 1968, 160, 22 and Vargaftig, B. B. et al in Eur. J. Pharmacol. 1969, 6, 49, the inhalation of chloroform vapour produced in the mouse apnea followed by ventricular fibrillation.
The mechanism of this technique remains unknown.

[2] = Tolerance of normal healthy adult male subjects to cetiedil given by intravenous infusion; format: in vivo, human
[3] = test system: polymorphous arrhythmias induced by adrenaline petrol-ether; experiment: Polymorphous arrhythmias induced in the anaesthetised guinea-pig by adrenaline and petrol ether; format: in vivo
Text: Adrenaline in high dosage is a powerful arrhythmogenic stimulus to a myocardia induced by petrol ether, as recognized in the guinea-pig by LE MARECHAL J., Thesis Doct.

rat aortic fragments [4] = experiment: Contraction of rat aorta fragment induced by potassium depolarisation; format: cell-based; conditions: for pD'2: pD'2 = pDx + log (x - 1)
Protocol: (§1) Fragments of aorta removed from rats are immersed in survival fluid in the presence of carbogene at 37° C. By modifying the ionic equilibrium of the survival medium, it was possible to study the effects of […] on contraction of the aortic fragments induced by depolarisation with potassium or calcium.

[5] = test system: atrio-ventricular conduction; experiment: Atrio-ventricular conduction in the anaesthetized dog (Duchene-Marullaz); format: in vivo
Text: (§2) The technique of DAWES (modified by ALLIES ET AL.) was used with the isolated guinea-pig atrial, and the technique of DUCHENE-MARULLAZ, J. Pharmacol. Paris, 1970, 1, 539, in the anaesthetized dog. This method is used to study the permeability of atrio-ventricular conduction, and thus more precisely conduction at the level of Tawara's nod.

[6] = test system: ventricular tachycardia induced by ouabaine; experiment: Ouabain induced ventricular tachycardia in the anesthetized guinea-pig; format: in vivo; conditions: 5 and 10 mg/kg
Protocol: This test is used to determine the dose of ouabain administered by slow infusion necessary to obtain the appearance of ventricular extrasystoles. The animal used was the guinea pig and the substances were administered intravenously.

[7] = test system: ventricular fibrillation induced by CaCl2; experiment: Calcium (CaCl2) induced ventricular fibrillation in the anaesthetized rat, Malinow's technique; format: in vivo
Protocol: According to MALINOW, M. R., et coll. Acta. Physiol Latino. Americ.
Using the anaesthetized rat, 200 mg/kg of CaCl2 was injected two minutes after the substances to be tested. The ECG was recorded continuously in lead II.

[8] = test system: ventricular tachycardia induced by Ouabain; experiment: Ouabain induced ventricular tachycardia in the dog (Lucchesi and Hardman); format: in vivo; conditions: at the average effective dose
Text: The method used is that of […] and HARDMAN, J. Pharmacol. Exp. Ther. 1961, 132, 372-381. Ventricular tachycardia was obtained by the sequential administration of Ouabain until a permanent ventricular tachycardia developed. Following observation of the effect of the substance, the reappearance of this ventricular tachycardia following the injection of insulin was confirmed, thereby showing the persistence within the heart of a toxic dose of Ouabain (Average dose of Ouabain 71.25 γ kg IV).

in vivo = conditions: mouse, iv
[9] = test system: rabbit cornea oculo-palpebral reflex; format: in vivo; conditions: for TOTAL DEGREE OF ANAESTHESIA FOR 60 minutes: rabbit cornea, total 13 no anaesthesia, 1300 complete
Text: For the purpose of this study, the classical technique of REGNIER J., Thesis Doct. […] This consists of repeating touching of the rabbit cornea until an oculo-palpebral reflex is obtained. It should be noted that […], in common with the reference substances, was used in the form of the HCl Salt.

[10] = cited from earlier work
[11] = test system: isolated guinea-pig atrial; experiment: Stimulated isolated guinea pig atrial (technique of Dawes); format: cell-based
Text: as §2

rat aortic fragments [12] = experiment: Competitive antagonism of calcium dose/effect curve of contraction of rat aortic fragment; format: cell-based; conditions: competitive inhibition versus calcium
Protocol: as §1

In the case of `O=C(OCCN1CCCCCC1)C(c1ccsc1)C1CCCCC1` (stereo not drawn) [citrate monohydrate of α-cyclohexyl-3-thiopheneaceticacid 2-(hexahydro-1H-azepin-1-yl)ethyl ester], the “activity relative to propranolol” value ([1]; chloroform induced fibrillation in the mouse) is reported as “ten times less powerful than propranolol”, the ED50 ([1]; mouse, chloroform vapour inhalation, IP, read-out: ED50) is reported as about 50 mg/kg and the overall safety conclusion ([2]; 0.359 mg/kg infused 9 times over a 10 day-period) is reported as “safe drug”. The “abnormalities in electrocardiograms, blood chemistry, hematologic profiles, urine analyses” value ([2]; 10 volunteers, 0.359 mg/kg, 9 infusions over 10 days) was “no significant abnormalities”, the “subjects with doubtful elevation in SGOT value” ([2]; after completion of study-period, of 10) was 2 subjects and the “average duration of side effects after completion of infusion” value ([2]; after the first infusion) was 72.9 min. For the same compound, the “subjects complaining of side effects” value ([2]; after the first infusion) was 7 subjects, the “duration of side effects” value ([2]; after the ninth infusion) was 15 min and the “subjects complaining of side effects” value ([2]; after the ninth infusion) was 3 subjects. The “K+ level” value ([2]; another subject, after completing the study) was “slight reduction”, the “Ca++ level” value ([2]; one subject, after completing the study) was “minimal elevation” and the systemic blood pressure ([2]; one to four hours after infusion) was “slightly decreased”. For the same compound, the Pulse rate ([2]; usually one hour after the infusion) was “slightly reduced”, the ED50 ([3]; Cavia porcellus, ip, guinea-pig, urethane 1.2 g/kg IP, substance 5 minutes before intoxication, read-out: ED50 (dose decreasing by half the duration of the disturbances)) was about 1.2 mg/kg and the “index I = LD50 IV/ED50” value ([3]; Table 1, adrenaline petrol-ether, guinea-pig ED50, mouse LD50) was 47.50. The “activity relative to the reference β-blocker” value ([3]; guinea pig, adrenaline and petrol-ether) was “three times less active than the reference β-blocker”, the IC50 (rat aortic fragments [4]; in the presence of 1.26 mM of calcium, read-out: concentration reducing by half the force of contraction) was 6 µM and the “pD'2 (mean)” value (rat aortic fragments [4]; mean ± SD, potassium depolarisation) was 5.23 ± 0.05 and 5.23. The x (rat aortic fragments [4]; single experiment, cetiedil concentration 1 (pDx 6.00)) was 1.16, the “pD'2” value (rat aortic fragments [4]; single experiment, cetiedil concentration 1) was 5.20 and the x (rat aortic fragments [4]; single experiments, cetiedil concentration 5 (pDx 5.30)) was 1.50 and 2.17. For the same compound, the “pD'2” value (rat aortic fragments [4]; single experiments, cetiedil concentration 5) was 5.00 and 5.37, the x (rat aortic fragments [4]; single experiments, cetiedil concentration 10 (pDx 5.00)) was 2.78 and 3.24 and 2.70 and the “pD'2” value (rat aortic fragments [4]; single experiments, cetiedil concentration 10) was 5.25 and 5.35 and 5.23. For the same compound, the “effect on atrio-ventricular conduction after denervation” value ([5]; anaesthetized dog, denervated) was “not altered by denervation”, the “effect on atrio-ventricular conduction” value ([5]; anaesthetized dog, intact) was “significant depression which was proportional to the dose injected” and the chronotropic effect ([5]; dog) was “absence of any significant negative chronotropic effects”. For the same compound, the “effects on contractile force of the myocardia” value ([5]; dog, doses of 2.5 and 5 mg/kg) was “slight”, the “threshold before the development of cardiac disturbances” value [6] was “significant increase” and the “index LD50/AD50 (ventricular fibrillation)” value ([7]; Table 2) was 18,69. For the same compound, the “index LD50/AD50 (death)” value ([7]; Table 3) was 16.29, the “AD 50 protection against ventricular fibrillation” value ([7]; anaesthetized rat, CaCl2 200 mg/kg IV two minutes after substance) was 3,50 mg/kg/IV and the ED50 ([7]; anaesthetized rat, CaCl2 200 mg/kg IV two minutes after substance, read-out: AD 50 protection against ventricular fibrillation) was 3.5 mg/kg. The “duration of return to sinus rhythm” value [8] was “more than 30 min”, the LD50 (in vivo) was 57 mg/kg and the “local anaesthetic effects relative to cocaine” value ([9]; rabbit) was “twice as great as those of cocaine”. For the same compound, the “TOTAL DEGREE OF ANAESTHESIA FOR 60 minutes” value ([9]; 0.25 g./100, HCl salt) was 393.2, the “TOTAL DEGREE OF ANAESTHESIA FOR 60 minutes” value ([9]; 0.50 g./100, HCl salt) was 798.8 and the “duration of complete local anaesthesia” value ([9]; rabbit, local instillation, concentration of 0.5%) was 15 min. The “share of circulating radio-activity due to a metabolite” value ([10]; 5 minutes after intravenous injection of 0.25 mg) was “half”, the digestive absorbtion ([10]; C14) was “excellent” and the Rectal absorption ([10]; in vivo) was “relatively low, and above all, very slow”. The Biliary excretion ([10]; individual with a biliary drain) was “no more than 11%”, the “terminal half-life of plasma radio-activity” value ([10]; man, 0.25 mg intravenous, C14) was “approximately five” and the “terminal half-life of urinary excretion” value ([10]; man, C14) was about 26 h. The “radio-activity excreted in the urines” value ([10]; man, intact biliary circulation) was “approximately 65%”, the “plasma radioactivity following oral administration” value ([10]; man, versus intravenous injection) was “markedly higher than after intravenous injection” and the urinary excretion ([10]; patient who had undergone surgery) was 42%. For the same compound, the “radio-active transformation substance in urine” value ([10]; urine passed 1 hour following the injection) was 100%, the “% DECREASE SPONTANEOUS RATE” value ([11]; concentration 10^-5) was 26% and the “% DECREASE m.f.s. (maximum frequency followed by the atrial)” value ([11]; concentration 10^-5) was 27%. For the same compound, the “% DECREASE SPONTANEOUS RATE” value ([11]; concentration 10^-6) was 6%, the “% DECREASE m.f.s. (maximum frequency followed by the atrial)” value ([11]; concentration 10^-6) was 14% and the “% DECREASE SPONTANEOUS RATE” value ([11]; concentration 10^-7) was 9%. For the same compound, the “% DECREASE m.f.s. (maximum frequency followed by the atrial)” value ([11]; concentration 10^-7) was 6%, the negative bathmotropic effect ([11]; concentration of 1.10^-6) was “identical to that of Quinidine and less than that of Propranolol” and the pA2 (rat aortic fragments [12]) was 6.27.
